Reference: paper PMC4858680, “A platinum-based hybrid drug design approach to circumvent acquired resistance to molecular targeted tyrosine kinase inhibitors” (Scientific Reports, 2016)
Like-named read-outs stand apart in the source and are kept apart here.

How the values were obtained:
Format in all cases: binding
EPHA2 = molecular target: T1, EPHA2 (Homo sapiens, UniProt P29317); conditions: for remaining binding at 10 µM: read-out: Percent control
T1 construct: purchased DiscoveRx KINOMEscan

EPHA3 = molecular target: T2, EPHA3 (Homo sapiens, UniProt P29320); conditions: for remaining binding at 10 µM: read-out: Percent control
T2 construct: purchased DiscoveRx KINOMEscan
T2 sequence (P29320 21-983): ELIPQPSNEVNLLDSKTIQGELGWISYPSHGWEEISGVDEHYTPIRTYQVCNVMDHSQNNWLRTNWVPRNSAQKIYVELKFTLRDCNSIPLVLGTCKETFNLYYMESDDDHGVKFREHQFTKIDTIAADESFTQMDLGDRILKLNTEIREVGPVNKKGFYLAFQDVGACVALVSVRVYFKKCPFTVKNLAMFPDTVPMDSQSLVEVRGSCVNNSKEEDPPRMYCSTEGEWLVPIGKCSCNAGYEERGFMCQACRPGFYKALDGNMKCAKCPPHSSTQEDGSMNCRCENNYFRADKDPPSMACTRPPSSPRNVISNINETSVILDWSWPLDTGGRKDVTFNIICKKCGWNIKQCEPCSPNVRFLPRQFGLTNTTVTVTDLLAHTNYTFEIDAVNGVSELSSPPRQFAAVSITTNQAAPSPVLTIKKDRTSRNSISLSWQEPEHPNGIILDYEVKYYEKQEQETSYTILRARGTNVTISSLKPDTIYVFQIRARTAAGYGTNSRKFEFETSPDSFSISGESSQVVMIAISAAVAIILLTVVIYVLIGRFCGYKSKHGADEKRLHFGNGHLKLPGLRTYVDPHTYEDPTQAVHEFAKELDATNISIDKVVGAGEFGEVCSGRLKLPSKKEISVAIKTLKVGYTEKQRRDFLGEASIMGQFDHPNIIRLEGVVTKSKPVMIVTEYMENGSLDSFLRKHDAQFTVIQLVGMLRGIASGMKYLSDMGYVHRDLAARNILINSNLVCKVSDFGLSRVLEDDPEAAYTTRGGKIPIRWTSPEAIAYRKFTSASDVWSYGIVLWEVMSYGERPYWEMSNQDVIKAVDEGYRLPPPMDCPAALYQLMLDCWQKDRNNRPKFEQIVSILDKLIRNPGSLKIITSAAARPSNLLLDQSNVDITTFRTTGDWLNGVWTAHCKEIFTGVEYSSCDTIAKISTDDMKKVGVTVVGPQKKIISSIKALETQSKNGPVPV

ERBB4 = molecular target: T3, ERBB4 (Homo sapiens, UniProt Q15303); conditions: for remaining binding at 10 µM: read-out: Percent control
T3 construct: purchased DiscoveRx KINOMEscan

FGR = molecular target: T4, FGR (Homo sapiens, UniProt P09769); conditions: for Percent control: 10 μM; for remaining binding at 10 µM: read-out: Percent control
T4 construct: purchased DiscoveRx KINOMEscan

INSRR = molecular target: T5, INSRR (Homo sapiens, UniProt P14616); conditions: for remaining binding at 10 µM: read-out: Percent control
T5 construct: purchased DiscoveRx KINOMEscan

[1] = molecular target: T6, JAK3(JH1domain-catalytic) (Homo sapiens, UniProt P52333); conditions: for remaining binding at 10 µM: read-out: Percent control
T6 construct: JAK3(JH1domain-catalytic); purchased DiscoveRx KINOMEscan

PYK2 = molecular target: T7, PYK2 (Homo sapiens, UniProt Q14289); conditions: for remaining binding at 10 µM: read-out: Percent control
T7 construct: purchased DiscoveRx KINOMEscan

SRMS = molecular target: T8, SRMS (Homo sapiens, UniProt Q9H3Y6); conditions: for remaining binding at 10 µM: read-out: Percent control
T8 construct: purchased DiscoveRx (KINOMEscan service)

TRKA = molecular target: T9, TRKA (Homo sapiens, UniProt P04629); conditions: for remaining binding at 10 µM: read-out: Percent control
T9 construct: purchased DiscoveRx (KINOMEscan service)

TXK = molecular target: T10, TXK (Homo sapiens, UniProt P42681); conditions: for Percent control: 10 μM; for remaining binding at 10 µM: read-out: Percent control
T10 construct: purchased DiscoveRx (KINOMEscan service)
T10 sequence (P42681 1-527): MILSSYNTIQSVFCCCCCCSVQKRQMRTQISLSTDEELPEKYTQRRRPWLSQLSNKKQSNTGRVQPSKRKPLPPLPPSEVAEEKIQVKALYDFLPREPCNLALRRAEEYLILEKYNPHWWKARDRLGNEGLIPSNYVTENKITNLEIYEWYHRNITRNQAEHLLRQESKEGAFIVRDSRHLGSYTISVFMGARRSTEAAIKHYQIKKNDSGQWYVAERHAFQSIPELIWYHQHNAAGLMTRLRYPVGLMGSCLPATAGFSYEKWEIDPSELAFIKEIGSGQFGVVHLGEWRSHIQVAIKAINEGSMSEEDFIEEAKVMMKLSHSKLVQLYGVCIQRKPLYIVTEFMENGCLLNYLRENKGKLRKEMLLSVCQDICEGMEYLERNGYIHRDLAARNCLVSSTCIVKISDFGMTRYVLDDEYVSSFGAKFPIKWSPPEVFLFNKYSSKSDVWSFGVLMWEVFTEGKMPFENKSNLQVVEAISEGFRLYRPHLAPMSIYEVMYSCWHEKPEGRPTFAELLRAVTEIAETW

[2] = molecular target: T11, TYK2(JH1domain-catalytic) (Homo sapiens, UniProt P29597); conditions: for Percent control: 10 μM; for remaining binding at 10 µM: read-out: Percent control
T11 construct: TYK2(JH1domain-catalytic); purchased DiscoveRx (KINOMEscan service)
T11 sequence (P29597 897-1176 limits assumed): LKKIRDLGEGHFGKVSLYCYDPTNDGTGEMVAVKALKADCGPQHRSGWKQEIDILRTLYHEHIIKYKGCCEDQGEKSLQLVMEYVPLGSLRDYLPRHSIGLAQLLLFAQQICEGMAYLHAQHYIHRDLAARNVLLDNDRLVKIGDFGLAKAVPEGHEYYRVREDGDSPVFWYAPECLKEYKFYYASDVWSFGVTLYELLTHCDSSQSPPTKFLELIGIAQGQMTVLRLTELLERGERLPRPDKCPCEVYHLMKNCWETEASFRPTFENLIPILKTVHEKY

[3] = JAK3(JH1domain-catalytic), 10 μM

T4 sequence (P09769 whole entry): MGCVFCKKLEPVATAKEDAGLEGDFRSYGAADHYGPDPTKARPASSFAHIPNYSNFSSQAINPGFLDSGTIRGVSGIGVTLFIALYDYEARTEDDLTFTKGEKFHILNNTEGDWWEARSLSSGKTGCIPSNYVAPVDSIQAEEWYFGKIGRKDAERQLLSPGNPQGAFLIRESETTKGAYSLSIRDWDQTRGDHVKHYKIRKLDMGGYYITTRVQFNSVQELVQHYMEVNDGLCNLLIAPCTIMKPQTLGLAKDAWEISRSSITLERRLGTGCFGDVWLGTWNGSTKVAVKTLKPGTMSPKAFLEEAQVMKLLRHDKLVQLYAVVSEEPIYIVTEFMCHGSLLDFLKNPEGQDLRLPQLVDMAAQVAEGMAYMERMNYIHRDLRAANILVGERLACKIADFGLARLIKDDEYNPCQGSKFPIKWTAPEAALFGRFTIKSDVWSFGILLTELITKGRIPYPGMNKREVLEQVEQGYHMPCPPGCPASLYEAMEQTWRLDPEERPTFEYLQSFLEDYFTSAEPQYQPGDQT
T8 sequence (Q9H3Y6 whole entry): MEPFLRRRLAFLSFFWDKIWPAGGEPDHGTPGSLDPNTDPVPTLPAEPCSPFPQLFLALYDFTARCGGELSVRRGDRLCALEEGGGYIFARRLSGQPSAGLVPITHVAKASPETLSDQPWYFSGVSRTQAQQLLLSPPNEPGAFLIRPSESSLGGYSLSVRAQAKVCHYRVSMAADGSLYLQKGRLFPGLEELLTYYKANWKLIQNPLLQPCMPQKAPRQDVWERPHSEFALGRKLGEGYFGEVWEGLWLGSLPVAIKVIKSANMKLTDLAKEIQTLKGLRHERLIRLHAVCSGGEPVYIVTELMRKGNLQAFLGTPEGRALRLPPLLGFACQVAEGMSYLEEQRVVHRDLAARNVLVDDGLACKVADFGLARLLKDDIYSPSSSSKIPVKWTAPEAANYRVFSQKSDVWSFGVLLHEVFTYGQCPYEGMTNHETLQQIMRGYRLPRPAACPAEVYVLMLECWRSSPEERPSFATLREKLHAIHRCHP
T7 sequence (Q14289 whole entry): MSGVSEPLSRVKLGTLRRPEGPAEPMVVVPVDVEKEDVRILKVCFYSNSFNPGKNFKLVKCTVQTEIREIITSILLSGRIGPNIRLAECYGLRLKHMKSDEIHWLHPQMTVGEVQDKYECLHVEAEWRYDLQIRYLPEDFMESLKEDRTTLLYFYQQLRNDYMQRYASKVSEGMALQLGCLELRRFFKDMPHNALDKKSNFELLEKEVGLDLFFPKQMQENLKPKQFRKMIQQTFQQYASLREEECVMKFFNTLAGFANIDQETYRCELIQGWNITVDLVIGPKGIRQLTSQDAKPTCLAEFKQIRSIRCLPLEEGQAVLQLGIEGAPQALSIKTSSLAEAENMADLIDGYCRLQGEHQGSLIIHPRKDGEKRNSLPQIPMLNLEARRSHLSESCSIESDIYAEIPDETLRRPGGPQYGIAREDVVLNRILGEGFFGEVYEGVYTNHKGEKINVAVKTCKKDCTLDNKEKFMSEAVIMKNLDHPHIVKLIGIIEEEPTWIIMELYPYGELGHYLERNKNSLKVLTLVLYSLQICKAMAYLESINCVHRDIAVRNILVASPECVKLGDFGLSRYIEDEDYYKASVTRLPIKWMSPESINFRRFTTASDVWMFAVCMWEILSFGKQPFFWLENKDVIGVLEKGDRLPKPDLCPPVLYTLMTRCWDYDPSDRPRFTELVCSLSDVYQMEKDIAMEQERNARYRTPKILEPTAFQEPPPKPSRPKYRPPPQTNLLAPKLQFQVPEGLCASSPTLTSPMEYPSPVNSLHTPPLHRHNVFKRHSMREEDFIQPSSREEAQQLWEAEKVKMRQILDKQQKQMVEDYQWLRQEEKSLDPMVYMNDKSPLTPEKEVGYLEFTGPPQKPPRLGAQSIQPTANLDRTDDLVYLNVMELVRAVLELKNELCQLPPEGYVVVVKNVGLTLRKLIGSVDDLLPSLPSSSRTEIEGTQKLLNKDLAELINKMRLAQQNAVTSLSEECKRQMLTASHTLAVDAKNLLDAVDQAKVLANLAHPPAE
T5 sequence (P14616 27-1297): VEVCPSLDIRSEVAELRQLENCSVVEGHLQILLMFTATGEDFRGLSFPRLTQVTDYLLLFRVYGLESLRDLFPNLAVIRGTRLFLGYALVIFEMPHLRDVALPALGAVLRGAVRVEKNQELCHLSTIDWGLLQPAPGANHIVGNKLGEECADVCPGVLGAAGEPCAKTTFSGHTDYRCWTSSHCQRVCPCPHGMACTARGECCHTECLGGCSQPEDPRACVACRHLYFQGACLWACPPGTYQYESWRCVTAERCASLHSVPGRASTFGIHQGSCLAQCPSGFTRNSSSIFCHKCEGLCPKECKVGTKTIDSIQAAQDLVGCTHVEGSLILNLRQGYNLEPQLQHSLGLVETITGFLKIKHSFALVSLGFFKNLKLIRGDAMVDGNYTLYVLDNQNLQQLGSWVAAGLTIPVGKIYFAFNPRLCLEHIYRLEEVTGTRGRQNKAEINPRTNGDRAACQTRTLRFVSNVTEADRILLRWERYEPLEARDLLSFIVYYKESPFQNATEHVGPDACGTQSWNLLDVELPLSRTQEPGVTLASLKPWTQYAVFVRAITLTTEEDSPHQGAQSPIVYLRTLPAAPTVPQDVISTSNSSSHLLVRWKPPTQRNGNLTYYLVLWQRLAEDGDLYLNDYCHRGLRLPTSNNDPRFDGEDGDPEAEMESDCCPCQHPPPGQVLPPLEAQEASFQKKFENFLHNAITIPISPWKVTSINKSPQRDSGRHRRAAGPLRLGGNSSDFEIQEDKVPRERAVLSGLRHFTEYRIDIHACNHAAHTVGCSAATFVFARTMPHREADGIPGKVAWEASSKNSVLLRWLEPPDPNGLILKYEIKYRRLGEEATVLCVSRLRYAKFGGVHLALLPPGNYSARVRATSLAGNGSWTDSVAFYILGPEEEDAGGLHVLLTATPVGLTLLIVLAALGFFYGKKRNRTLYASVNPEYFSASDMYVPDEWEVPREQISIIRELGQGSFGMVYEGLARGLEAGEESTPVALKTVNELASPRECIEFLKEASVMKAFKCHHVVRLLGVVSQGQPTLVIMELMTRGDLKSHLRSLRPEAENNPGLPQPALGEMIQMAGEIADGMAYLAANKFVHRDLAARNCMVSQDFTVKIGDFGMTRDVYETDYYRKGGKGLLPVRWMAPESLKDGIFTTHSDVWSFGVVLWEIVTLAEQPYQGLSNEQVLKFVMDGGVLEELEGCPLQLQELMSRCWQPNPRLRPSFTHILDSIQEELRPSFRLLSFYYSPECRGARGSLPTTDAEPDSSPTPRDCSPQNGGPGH
T6 sequence (P52333 813-1124 limits assumed): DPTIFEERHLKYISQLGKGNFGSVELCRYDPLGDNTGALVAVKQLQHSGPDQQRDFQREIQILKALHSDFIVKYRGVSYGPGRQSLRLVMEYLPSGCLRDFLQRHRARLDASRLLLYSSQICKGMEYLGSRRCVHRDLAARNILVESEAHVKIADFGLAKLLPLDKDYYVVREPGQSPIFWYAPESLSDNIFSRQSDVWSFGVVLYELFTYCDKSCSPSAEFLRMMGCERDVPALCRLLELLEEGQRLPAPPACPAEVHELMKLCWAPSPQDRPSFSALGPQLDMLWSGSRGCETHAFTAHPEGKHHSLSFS
T1 sequence (P29317 24-976): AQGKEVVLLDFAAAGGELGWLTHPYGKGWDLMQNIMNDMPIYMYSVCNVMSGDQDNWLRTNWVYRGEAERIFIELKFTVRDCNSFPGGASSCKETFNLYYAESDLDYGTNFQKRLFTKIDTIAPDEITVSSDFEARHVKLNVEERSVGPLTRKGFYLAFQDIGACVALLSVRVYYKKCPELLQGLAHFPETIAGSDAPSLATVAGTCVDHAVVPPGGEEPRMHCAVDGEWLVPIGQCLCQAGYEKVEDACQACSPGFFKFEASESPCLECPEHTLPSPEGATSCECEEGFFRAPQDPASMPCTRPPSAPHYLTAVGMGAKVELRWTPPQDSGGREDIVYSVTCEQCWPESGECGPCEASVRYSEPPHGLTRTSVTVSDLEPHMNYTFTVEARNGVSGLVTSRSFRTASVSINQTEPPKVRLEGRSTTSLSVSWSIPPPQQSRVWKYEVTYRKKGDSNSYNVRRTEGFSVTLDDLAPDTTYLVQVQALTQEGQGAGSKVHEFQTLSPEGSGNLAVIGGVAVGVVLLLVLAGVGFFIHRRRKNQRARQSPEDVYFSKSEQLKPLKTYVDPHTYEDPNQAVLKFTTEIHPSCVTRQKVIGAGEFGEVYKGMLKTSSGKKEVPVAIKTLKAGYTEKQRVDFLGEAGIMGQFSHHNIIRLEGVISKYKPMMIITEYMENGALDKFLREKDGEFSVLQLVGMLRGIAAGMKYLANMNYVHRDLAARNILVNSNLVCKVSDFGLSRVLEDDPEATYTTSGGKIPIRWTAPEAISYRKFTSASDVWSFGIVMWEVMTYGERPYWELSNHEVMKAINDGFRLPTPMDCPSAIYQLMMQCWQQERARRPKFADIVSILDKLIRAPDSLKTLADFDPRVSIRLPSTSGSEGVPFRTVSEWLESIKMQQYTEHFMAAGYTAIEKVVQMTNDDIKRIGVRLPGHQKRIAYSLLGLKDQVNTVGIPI

| Compound | Percent control (EPHA2; EPHA2, 10 μM) | Percent control (EPHA3; EPHA3, 10 μM) | Percent control (ERBB4; ERBB4, 10 μM) | Percent control (FGR) | Percent control (INSRR; INSRR, 10 μM) | Percent control [1, 3] | Percent control (PYK2; PYK2, 10 μM) | Percent control (SRMS; SRMS, 10 μM) | Percent control (TRKA; TRKA, 10 μM) | Percent control (TXK) | Percent control [2] | remaining binding at 10 µM (FGR) | remaining binding at 10 µM (TXK) | remaining binding at 10 µM [2] | further results |
| --- | --- | --- | --- | --- | --- | --- | --- | --- | --- | --- | --- | --- | --- | --- | --- |
| Cc1ccc(NC(=O)c2ccc(CN3CCN(C)CC3)cc2)cc1Nc1nccc(-c2cccnc2)[n+]1[Pt-2]1([Cl])[NH2+]C2CCCCC2[NH2+]1 (stereo not drawn) [1b, oxaliplatin-imatinib] | 99% | 64% | 93% | 80% | 100% | 55% | 92% | 98% | 98% | 87% | 94% |  |  |  |  |
| C#Cc1cccc(Nc2c3cc(OCCOC)c(OCCOC)cc3nc[n+]2[Pt@SP2-2]([NH3+])([NH3+])[Cl])c1 [2a, cisplatin-erlotinib] | 93% | 60% | 47% | 81% | 100% | 28% | 90% | 94% | 94% | 76% | 92% |  |  |  |  |
| COc1cc2c(Nc3ccc(Br)cc3F)[n+]([Pt-2]3([Cl])[NH2+]C4CCCCC4[NH2+]3)cnc2cc1OCC1CCN(C)CC1 (stereo not drawn) [3b, oxaliplatin-vandetanib] | 43% | 30% | 56% | 33% | 100% | 100% | 80% | 95% | 92% | 56% | 83% |  |  |  |  |
| C#Cc1cccc(Nc2ncnc3cc(OCCOC)c(OCCOC)cc23)c1 [Erlotinib] |  |  |  |  |  |  |  |  |  |  |  | 9.9% | 27.5% | 100% | remaining binding at 10 µM (EPHA2): 100%; remaining binding at 10 µM (EPHA3): 19.4%; remaining binding at 10 µM (ERBB4): 2.2%; remaining binding at 10 µM (INSRR): 100%; remaining binding at 10 µM [1]: 6.5%; remaining binding at 10 µM (PYK2): 100%; remaining binding at 10 µM (SRMS): 100%; remaining binding at 10 µM (TRKA): 100% |
| Cc1ccc(NC(=O)c2ccc(CN3CCN(C)CC3)cc2)cc1Nc1nccc(-c2cccnc2)n1 [Imatinib, reference compound] | 100% | 100% | 100% | 19.4% | 100% | 100% | 100% | 100% | 100% | 100% |  |  |  | 100% |  |
| COc1cc2c(Nc3ccc(Br)cc3F)ncnc2cc1OCC1CCN(C)CC1 [Vandetanib, reference compound] |  |  |  |  |  |  |  |  |  |  |  | 2.6% | 27% | 100% | remaining binding at 10 µM (EPHA2; EPHA2, 10 μM): 9.9%; remaining binding at 10 µM (EPHA3; EPHA3, 10 μM): 16.7%; remaining binding at 10 µM (ERBB4; ERBB4, 10 μM): 4.5%; remaining binding at 10 µM (INSRR; INSRR, 10 μM): 100%; remaining binding at 10 µM [1, 3]: 100%; remaining binding at 10 µM (PYK2; PYK2, 10 μM): 100%; remaining binding at 10 µM (SRMS; SRMS, 10 μM): 16%; remaining binding at 10 µM (TRKA; TRKA, 10 μM): 100% |
